This is an account of results in patent US20240180880A1, “METHODS OF USING EHMT2 INHIBITORS IN TREATING OR PREVENTING BLOOD DISORDERS” (Epizyme, Inc., priority 2017, published 2024).

Format in all cases: cell-based
In series [1] the test system is Various cell lines. Put plainly: Pretreatment model (7+3 or 7+7) combination proliferation assay, cellular ATP luminescence, Loewe synergy. To be noted: several cell lines.
Protocol: Pretreatment model: Various cell lines were seeded in flasks at densities that ensured log-linear growth rates for the duration of the assay. […] Cultures were incubated in a humidified atmosphere of 5% CO2 at 37° C. for 4 days. On Day 4 cells were spun down, resuspended in fresh medium, counted and diluted to the original cell density in new flasks. […] Cells were then spun down on Day 7, re-suspended in fresh medium and plated to assay-ready 384 well plates with an automated multichannel dispenser. […] Compounds listed in Table 7 were dispensed with a HP-D300 nanoliter dispenser (Tecan, Mannedorf, Switzerland), with each plate containing 8 combination partners. Plates were then incubated for an additional three or seven days as noted in FIG. 1D to follow a 7+3 or 7+7 model (cell lines with slow growth characteristics were tested in a 7+7 model). Quantification of proliferation through measurement of cellular adenosine triphosphate (ATP) was performed via a luminescent cell viability assay and read on a plate reader with luminescence module. […]
Fa was calculated with the formula:
Fa=1−(Luminescence of test compound/Luminesence of untreated control)
For series [2], the system named is Various cell lines. Kind of series: Cotreatment model (7-day) combination proliferation assay, cellular ATP luminescence, Loewe synergy. The following applies: several cell lines, Compound 205 and DNA hypomethylating agents, 7-day cotreatment models (FIG. 1D). The method, then:
Cells were incubated for seven days under humidified atmosphere of 5% CO2 at 37° C. The final concentration of DMSO (vehicle) in the assay was 0.1% v/v. Quantification of proliferation through measurement of cellular adenosine triphosphate (ATP) was performed via a luminescent cell viability assay. Plates were read in a plate reader with luminescence module. Quantification of synergy was performed using the Loewe Additivity model and calculating the Loewe Volume (V Loewe) with the Chalice Software (Horizon) and dose response curves and IC50 vs concentration plots were generated with Graphpad Prism software.

In series [3] the test system is Human CD34+ progenitor cells. Kind of series: Human CD34+ progenitors assay for fetal hemoglobin induction, % HbF+ cells by FACS (healthy donors). To be noted: for % HbF+ cells: 26% basal level. An excerpt:
(§1) An in-vitro system to test the ability of compound to induce fetal hemoglobin expression was developed. This system used Human CD34+ progenitor cells freshly isolated from healthy donors blood collections. Peripheral blood mononuclear cells (PBMCs) were isolated from whole blood by density gradient centrifugation using SepMatem-50 and Lymphoprep™ from Stem Cell Technologies. CD34^+ hematopoietic progenitor cells (HSPCs) were isolated from PBMCs by magnetic separation using Stem Cells Technologies CD34+ positive selection/isolation kit (Stem Cell Technologies, #18056). CD34 cells were cultured using a 2-phase 14 day culture system. During phase 1 (day 0 to day 7) cells were expanded. Expansion was followed by phase 2 (day 7 to day 14) where cells were differentiated toward the erythroid lineage. Compounds were added on day 1 and day 7 as 1000× stock after being diluted in dimethyl sulfoxide (DMSO) in a 3-fold series. Final DMSO concentration in the assay was 0.1%. At day 14 cells were harvested for Fluorescent Activated Cell Sorting (FACS) analysis and for HbF quantitation by Mass spectrometry. For cell surface and intracellular marker analysis by FACS, cells were fixed and stained with a cocktail of antibodies covering erythroid lineage markers, HbF and H3 and H3K9me2 (Table 11). Data was collected using Canto II flow cytometer (BD Biosciences) and the FACSDiva software. Data was analyzed using FlowJo software. % HbF^+ cells and ratios H3/H3K9me2 intensities were calculated for CD71^+/CD235a^+ gated populations.
A list of pharmacological agents was evaluated for their potential to induce fetal Hemoglobin (HbF) in order to identify combination partners for our EHMT1/2 inhibitors. HbF can be induced by toxicity; therefore, the potential of the agents to induce HbF were evaluated in the context of cell viability. (Table 12). The EHMT1/2 inhibitor Compound 205 was evaluated in combination with a fixed dose of 10 μM Hydroxyurea and 0.1 μM Pomalidomide. […] 10 μM Hydroxyurea as a single agent was able to induce 01% HbF^+ cells from 26% basal level to 45% while 0.016 μM compound 205 as a single agent induced to 45%. In combination these two agents were able to induced % HbF^+ to 63% (FIG. 3A). […] 0.1 μM Pomalidomide as a single agent was able to induce ° % HbF cells from 26% basal level to 48% while 0.016 μM compound 205 as a single agent induced to 45%. In combination these two agents were able to induce % HbF^+ to 78% (FIG. 3B).
Hydroxyurea was also evaluated as single agent and in combination with the EHMT1/2 inhibitor compound 205 in a matrix format using CD34^+ cells isolated from a pool of 5 healthy donors. […] (FIG. 4 and FIG. 5, respectively). It is noted that for Loewe excess determination in Chalice, data was normalized to the highest and lowest Hbγ induction observed under the conditions and dose ranges in the assay.
(In flow cytometry, cells or beads pass a laser one at a time.)

Series [4] relates to Human CD34+ progenitor cells. Kind of series: Human CD34+ progenitors assay, HbF (Hbγ) quantitation by mass spectrometry. The following applies: compound 205 with Hydroxyurea, matrix format, CD34+ cells from a pool of 5 healthy donors; Loewe excess in Chalice.
Excerpt: as §1, with “Final DMSO concentration in the assay was 0.1%.” left out, “For cell surface and intracellular marker analysis by FACS, cells were fixed and stained with a cocktail of antibodies covering erythroid lineage markers, HbF and H3 and H3K9me2 (Table 11). Data was collected using Canto II flow cytometer (BD Biosciences) and the FACSDiva software.” left out
Hydroxyurea was also evaluated as single agent and in combination with the EHMT1/2 inhibitor compound 205 in a matrix format using CD34^+ cells isolated from a pool of 5 healthy donors. […]

Series [5] deals with Human CD34+ progenitor cells. Kind of series: Cell viability in the human CD34+ progenitors HbF induction assay. The text has this:
An in-vitro system to test the ability of compound to induce fetal hemoglobin expression was developed. This system used Human CD34+ progenitor cells freshly isolated from healthy donors blood collections. Peripheral blood mononuclear cells (PBMCs) were isolated from whole blood by density gradient centrifugation using SepMatem-50 and Lymphoprep™ from Stem Cell Technologies. CD34^+ hematopoietic progenitor cells (HSPCs) were isolated from PBMCs by magnetic separation using Stem Cells Technologies CD34+ positive selection/isolation kit (Stem Cell Technologies, #18056). CD34 cells were cultured using a 2-phase 14 day culture system. During phase 1 (day 0 to day 7) cells were expanded. […] At day 14 cells were harvested for Fluorescent Activated Cell Sorting (FACS) analysis and for HbF quantitation by Mass spectrometry. […] Data was analyzed using FlowJo software. % HbF^+ cells and ratios H3/H3K9me2 intensities were calculated for CD71^+/CD235a^+ gated populations.
A list of pharmacological agents was evaluated for their potential to induce fetal Hemoglobin (HbF) in order to identify combination partners for our EHMT1/2 inhibitors. HbF can be induced by toxicity; therefore, the potential of the agents to induce HbF were evaluated in the context of cell viability. […] The EHMT1/2 inhibitor Compound 205 was evaluated in combination with a fixed dose of 10 μM Hydroxyurea and 0.1 μM Pomalidomide. […]

Where [6] appears, read: 0.016 μM compound 205 in combination with 0.1 μM Pomalidomide.
Setting [7] is: 0.016 μM compound 205 in combination with 10 μM Hydroxyurea.

One may read the cell viability as the share of living cells, or the viability signal relative to a control.

`CNc1cc(C)nc(Nc2ccc(OC)c(OCCCN3CCCC3)c2)n1` [Compound 205]: the “combination effect on proliferation (Loewe)” value with Various cell lines [1] (Compound 205 and ATRA (FIG. 1B)) is “synergy”; in the series with Various cell lines [1] (Compound 205 and Venetoclax (FIG. 1C)), “synergy”; in the series with Various cell lines [2], “synergy”. Moreover, the “% HbF+ cells” value in series [3] (0.016 μM compound 205 as a single agent) worked out at 45%; in series [3] (setting [6]), 78%; in series [3] (setting [7]), 63%. Also, the “combination effect on % HbF+ cells (FACS analysis)” value in series [3] (compound 205 with Hydroxyurea, matrix format, CD34+ cells from a pool of 5 healthy donors) is on record as “synergistically”. In series [4], the “combination effect on Hbγ protein expression (MS quantification)” value is “synergistically”. For the same compound, the cell viability in series [5] (setting [6]) and in series [5] (setting [7]) was over 90% each time.
